Test system: 883617-216-R-J1-PDC complex spheroid viability
Experiment: Anticancer human tumor 883617-216-R-J1-PDC patient-derived bladder carcinoma cell line growth inhibition [POLQ]
Details: for IC50: curve of first compound; for viability, T/C: stronger effect = lower value
Procedure, shortened: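 PDC + HUVEC + MSC complex spheroids; POLQ inhibitors ± partner drugs; top conc. at/near clinical Cmax, else 10 microM (SN-38 1 microM), half-log dilutions; 37 degrees C, 5% CO2.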

[1] = second compound 0.0316 µM, first compound 0.0316 µM
[2] = second compound 0.0316 µM, first compound 0.1 µM
[3] = second compound 0.0316 µM, first compound 0.316 µM
[4] = second compound 0.0316 µM, first compound 1 µM
[5] = second compound 0.0316 µM, first compound 3.16 µM
[6] = second compound 0.0316 µM, first compound 10 µM
[7] = second compound 0.1 µM, first compound 0.0316 µM
[8] = second compound 0.1 µM, first compound 0.1 µM
[9] = second compound 0.1 µM, first compound 0.316 µM
[10] = second compound 0.1 µM, first compound 1 µM
[11] = second compound 0.1 µM, first compound 3.16 µM
[12] = second compound 0.1 µM, first compound 10 µM
[13] = second compound 0.316 µM, first compound 0.0316 µM
[14] = second compound 0.316 µM, first compound 0.1 µM
[15] = second compound 0.316 µM, first compound 0.316 µM
[16] = second compound 0.316 µM, first compound 1 µM
[17] = second compound 0.316 µM, first compound 3.16 µM
[18] = second compound 0.316 µM, first compound 10 µM
[19] = second compound 1 µM, first compound 0.0316 µM
[20] = second compound 1 µM, first compound 0.1 µM
[21] = second compound 1 µM, first compound 0.316 µM
[22] = second compound 1 µM, first compound 1 µM
[23] = second compound 1 µM, first compound 3.16 µM
[24] = second compound 1 µM, first compound 10 µM
[25] = second compound 3.16 µM, first compound 0.0316 µM
[26] = second compound 3.16 µM, first compound 0.1 µM
[27] = second compound 3.16 µM, first compound 0.316 µM
[28] = second compound 3.16 µM, first compound 1 µM
[29] = second compound 3.16 µM, first compound 3.16 µM
[30] = second compound 3.16 µM, first compound 10 µM
[31] = second compound 10 µM, first compound 0.0316 µM
[32] = second compound 10 µM, first compound 0.1 µM
[33] = second compound 10 µM, first compound 0.316 µM
[34] = second compound 10 µM, first compound 1 µM
[35] = second compound 10 µM, first compound 3.16 µM
[36] = second compound 10 µM, first compound 10 µM
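Further: spheroids exposed to compounds for seven days before readout.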
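Wherever viability, T/C is given: 100% = DMSO vehicle control viability.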

SMILES: CNCc1ccc(-c2[nH]c3cc(F)cc4c3c2CCNC4=O)cc1 + Cc1cccc(N(C)C(=O)C2C(O)CCN2c2nc(C)cc(C(F)(F)F)c2C#N)c1
- IC50 (second compound 0.0316 µM): > 10 µM
- IC50 (second compound 0.1 µM): > 10 µM
- IC50 (second compound 0.316 µM): > 10 µM
- IC50 (second compound 1 µM): > 10 µM
- IC50 (second compound 3.16 µM): > 10 µM
- IC50 (second compound 10 µM): > 10 µM
- viability, T/C [1]: 91.1%
- viability, T/C [2]: 97.6%
- viability, T/C [3]: 93%
- viability, T/C [4]: 90.3%
- viability, T/C [5]: 93.4%
- viability, T/C [6]: 82.7%
- viability, T/C [7]: 98.4%
- viability, T/C [8]: 95.7%
- viability, T/C [9]: 93.8%
- viability, T/C [10]: 104%
- viability, T/C [11]: 89%
- viability, T/C [12]: 81.6%
- viability, T/C [13]: 91.8%
- viability, T/C [14]: 92%
- viability, T/C [15]: 94.2%
- viability, T/C [16]: 90.6%
- viability, T/C [17]: 94.9%
- viability, T/C [18]: 75.2%
- viability, T/C [19]: 92.6%
- viability, T/C [20]: 83.6%
- viability, T/C [21]: 89.5%
- viability, T/C [22]: 97.5%
- viability, T/C [23]: 96.9%
- viability, T/C [24]: 80.9%
- viability, T/C [25]: 98.7%
- viability, T/C [26]: 95.3%
- viability, T/C [27]: 86.8%
- viability, T/C [28]: 84.2%
- viability, T/C [29]: 107%
- viability, T/C [30]: 88.6%
- viability, T/C [31]: 106%
- viability, T/C [32]: 98.6%
- viability, T/C [33]: 105%
- viability, T/C [34]: 102%
- viability, T/C [35]: 107%
- viability, T/C [36]: 93.3%

SMILES: O=C(Nc1ccc(O)c(NS(=O)(=O)c2ccc(F)cc2)c1)c1ccc(-c2ccccc2)cc1 + Nc1ccc(C#CCN(C(=O)Cc2ncc(C(F)(F)F)cc2C(F)(F)F)c2ccc(F)cc2)nn1
- IC50 (second compound 0.0316 µM): > 10 µM
- IC50 (second compound 0.1 µM): > 10 µM
- IC50 (second compound 0.316 µM): > 10 µM
- IC50 (second compound 1 µM): > 10 µM
- IC50 (second compound 3.16 µM): > 10 µM
- IC50 (second compound 10 µM): > 10 µM
- viability, T/C [1]: 91.5%
- viability, T/C [2]: 92.5%
- viability, T/C [3]: 102%
- viability, T/C [4]: 82.8%
- viability, T/C [5]: 79.3%
- viability, T/C [6]: 71%
- viability, T/C [7]: 106%
- viability, T/C [8]: 104%
- viability, T/C [9]: 90.1%
- viability, T/C [10]: 84.1%
- viability, T/C [11]: 88.4%
- viability, T/C [12]: 70.1%
- viability, T/C [13]: 90.4%
- viability, T/C [14]: 102%
- viability, T/C [15]: 97.6%
- viability, T/C [16]: 85.5%
- viability, T/C [17]: 81.7%
- viability, T/C [18]: 72.5%
- viability, T/C [19]: 91.8%
- viability, T/C [20]: 95.4%
- viability, T/C [21]: 96.3%
- viability, T/C [22]: 84.3%
- viability, T/C [23]: 87.9%
- viability, T/C [24]: 66.1%
- viability, T/C [25]: 101%
- viability, T/C [26]: 101%
- viability, T/C [27]: 104%
- viability, T/C [28]: 88.1%
- viability, T/C [29]: 86.5%
- viability, T/C [30]: 72.2%
- viability, T/C [31]: 116%
- viability, T/C [32]: 108%
- viability, T/C [33]: 115%
- viability, T/C [34]: 97.8%
- viability, T/C [35]: 117%
- viability, T/C [36]: 72.6%

— PubChem BioAssay AID1963833 (Molecular Pharmacology Branch, DTP, NCI, 2024)
